One experiment deals with c-Abl kinase (Abelson murine leukemia virus, UniProt P00521). As to the kind of experiment: Inhibition of c-Abl kinase activity (cell-free, Abl peptide substrate, 33P Flashplate). In kind it is biochemical. Particulars: IC50 for the c-Abl kinase activity. As to the method: The inhibitory activity of compounds within the scope of the invention on c-Abl kinase activity was tested according to the following procedure.
• 1. 10× Kinase Buffer [500 mM Tris-HCl pH=8, 100 mM MgCl2, 1 mM Na3VO4] • 2. 10 mM DTT [final concentration 1 mM] • 3. 10 mM ATP [final concentration 5 μM] (Gibco, Cat No:18330-019, Carlsbad, Calif.) • 4. ^33P-γ-ATP [NEG-602H; 2000–3000 Ci/mmol], 2 μCuries per well at 10 μCi/μl (0.2 μl/well) • 5. Abl enzyme (New England Biolabs, Cat No. P6050L, Beverly, Mass.) at 100 Units/μl use 10 Units/well (0.1 μl/well) • 6. Enzyme Dilution Buffer [50 mM Tris-HCl pH=8.0, 0.1% BSA] • 7. Wash/Stop Buffer [PBS+100 mM EDTA] • 8. NEN Streptavidin Flashplates (New England Nuclear, Cat No. SMP-103, Boston, Mass.). • 9. Abl Peptide Substrate (Biotin-[…]-amide) at 1 mM in 50 mM Tris-HCL pH=8.0. (Use at 1.0 μM). Procedure
Reagents were first mixed according to the following regimen:
The above reaction mixture was dispensed into each well of a Flashplate at 70 μl/well. To test the effect of a compound on Abl kinase activity, the test compound either in a fixed concentration or in serially diluted concentrations in 100% DMSO was added to appropriate wells at 1 μl/well.
Enzyme Abl was diluted in enzyme dilution buffer as following:
The kinase reaction was started by adding 30 μl of diluted Abl enzyme solution to each well on the Flashplate containing hot ATP (2 μCi/well) and Abl peptide substrate (at 1 μM final conc.), except wells of column 12 rows E and F, which were used to calculate the plate background. The Flashplate was swirled to mix and was incubated at 30° C. for 60 minutes. Then, the reaction mixture was discarded and the Flashplate was washed 3 times each with 200 μL Wash/Stop Buffer. Subsequently, each well on the Flashplate was filled with 200 μl of Wash/Stop buffer. The amount of ^33P retained in each well was measured using a Packard TopCount after the plate was sealed with a transparent plate sealer.
In order to test the potency of inhibition of present compounds, an IC50 for an individual compound was measured using the above procedure. As used herein, the IC50 for c-Abl kinase activity refers to the concentration of an inhibitor at which the activity of c-Abl kinase is reduced by one-half as compared with reactions containing no inhibitor.

In experiment [1] the target is T1, PDGF-receptor beta enzyme comprising the tyrosine kinase domain (Homo sapiens, UniProt P09619).
T1 construct: from amino acid 545 to 1106 of GenBank Access NO: AAA36427
T1 sequence (P09619 545-1106): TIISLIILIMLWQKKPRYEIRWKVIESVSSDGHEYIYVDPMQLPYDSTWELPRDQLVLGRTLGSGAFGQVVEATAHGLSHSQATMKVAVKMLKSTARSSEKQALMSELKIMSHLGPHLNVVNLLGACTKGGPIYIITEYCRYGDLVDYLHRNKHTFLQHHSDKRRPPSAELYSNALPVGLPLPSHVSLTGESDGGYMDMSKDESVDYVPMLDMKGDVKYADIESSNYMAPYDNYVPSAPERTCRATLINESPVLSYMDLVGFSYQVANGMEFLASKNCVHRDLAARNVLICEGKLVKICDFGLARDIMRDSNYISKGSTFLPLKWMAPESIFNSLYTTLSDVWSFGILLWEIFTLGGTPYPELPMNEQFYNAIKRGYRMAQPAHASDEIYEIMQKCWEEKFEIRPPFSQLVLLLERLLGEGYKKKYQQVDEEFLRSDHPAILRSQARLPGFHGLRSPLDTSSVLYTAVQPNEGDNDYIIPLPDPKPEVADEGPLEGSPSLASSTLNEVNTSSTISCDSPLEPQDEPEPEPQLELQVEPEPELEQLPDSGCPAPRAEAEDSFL
In words: Inhibition of PDGF-receptor kinase activity (cell-free, PLC1 peptide, 33P Flashplate). The conditions noted are these: PDGF-R kinase activity; for inhibition at 10 µM: compound at 10 uM, read-out: Percent Inhibition @ 10 uM; for pIC50: read-out: IC50. In kind it is biochemical. In outline:
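The IC50 is the inhibitor level halving kinase activity relative to inhibitor-free wells, measured as 33P captured on a streptavidin-bound biotin-PLC1 peptide. The reaction ran 60 min at 30 °C in pH 8 Tris buffer with 1 mM DTT, 5 μM ATP and the 545–1106 kinase-domain enzyme.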

These results are taken from US7196110B2, “N-substituted tricyclic 3-aminopyrazoles as inhibitors for the treatment of cell proliferative disorders” (Janssen Phamaceutica N.V., priority 2002, dated 2007).

pIC50: −log10 of the molar value.

As a reminder, the pIC50 is the negative decadic logarithm of the IC50, by convention in mol/L. Broadly, the inhibition is the relative decrease from the control value, in per cent.

c-Abl kinase, sequence (P00521 115-385): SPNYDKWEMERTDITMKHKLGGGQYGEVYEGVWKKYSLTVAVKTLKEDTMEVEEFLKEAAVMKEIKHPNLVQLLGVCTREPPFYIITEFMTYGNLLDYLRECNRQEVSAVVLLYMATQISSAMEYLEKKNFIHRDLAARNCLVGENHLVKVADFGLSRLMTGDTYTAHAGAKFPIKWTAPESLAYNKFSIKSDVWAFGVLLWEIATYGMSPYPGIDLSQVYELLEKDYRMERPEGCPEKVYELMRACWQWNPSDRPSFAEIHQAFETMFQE

For the compound `CCc1cccc(Nc2[nH]nc3c2Cc2cc(OC)c(OC)cc2-3)c1` [Compound 209, (6,7-Dimethoxy-2,4-dihydro-indeno[1,2-c]pyrazol-3-yl)-(3-ethyl-phenyl)-amine], on c-Abl kinase, the pIC50 was 8.15. In experiment [1], the inhibition at 10 µM came out at 99% and the negative-log IC50 (pIC50) is 7.48.
As for `Fc1ccc2c(c1)Cc1c-2n[nH]c1Nc1ccc(F)c(Cl)c1` [Compound 202, (3-Chloro-4-fluoro-phenyl)-(6-fluoro-2,4-dihydro-indeno[1,2-c]pyrazol-3-yl)-amine], the pIC50 on c-Abl kinase was 5.58. In addition, in experiment [1], the inhibition at 10 µM worked out at 77% and the pIC50 was 7.91.
As to `COc1cc2c(cc1OCCCn1ccnc1)Cc1c-2n[nH]c1Nc1cccc(F)c1` [Compound 226, (3-Fluoro-phenyl)-[6-(3-imidazol-1-yl-propoxy)-7-methoxy-2,4-dihydro-indeno[1,2-c]pyrazol-3-yl]-amine], the negative-log IC50 (pIC50) is 6.61 at c-Abl kinase and 8.52 in experiment [1]. Also, the inhibition at 10 µM in experiment [1] stood at 102%.
Consider `COc1cc2c(cc1OC)-c1n[nH]c(Nc3cccc(C)c3)c1C2` [Compound 32, (6,7-Dimethoxy-2,4-dihydro-indeno[1,2-c]pyrazol-3-yl)-m-tolyl-amine], for which the pIC50 at c-Abl kinase was 8.70. In addition, the inhibition at 10 µM in experiment [1] turned out to be 79%.
Consider `CN(C)CCCOc1ccc2c(c1)Cc1c-2n[nH]c1Nc1cccc(F)c1` [Compound 160, [6-(3-Dimethylamino-propoxy)-2,4-dihydro-indeno[1,2-c]pyrazol-3-yl]-(3-fluoro-phenyl)-amine], for which the pIC50 at c-Abl kinase is 5.99. Besides, in experiment [1], the inhibition at 10 µM is 94.5% and the pIC50 was 7.23.
For `COc1cc2c(cc1OC)-c1c(c(Nc3cccc(F)c3)nn1C(=O)CCC(=O)O)C2` [Compound 466, 4-[3-(3-Fluoro-phenylamino)-6,7-dimethoxy-4H-indeno[1,2-c]pyrazol-1-yl]-4-oxo-butyric acid] the same measures were 6.72, 96% and 7.51.
In the same order, the values of `COc1cc2c(cc1OCCCO)Cc1c-2n[nH]c1Nc1cccc(F)c1` [Compound 265, 3-[3-(3-Fluoro-phenylamino)-7-methoxy-2,4-dihydro-indeno[1,2-c]pyrazol-6-yloxy]-propan-1-ol] are 7.07, 63% and 8.26.
In the same order, the values of `COc1cc2c(cc1OCCCN1CCOCC1)Cc1c-2n[nH]c1Nc1cccc(F)c1` [Compound 134, (3-Fluoro-phenyl)-[7-methoxy-6-(3-morpholin-4-yl-propoxy)-2,4-dihydro-indeno[1,2-c]pyrazol-3-yl]-amine] are 5.94, 96% and 8.00.
Turning to `COc1cccc(Nc2[nH]nc3c2Cc2cc(F)c(OC)cc2-3)c1` [Compound 360, (6-Fluoro-7-methoxy-2,4-dihydro-indeno[1,2-c]pyrazol-3-yl)-(3-methoxy-phenyl)-amine], the pIC50 at c-Abl kinase was 7.11; in experiment [1], 8.12. Moreover, the inhibition at 10 µM in experiment [1] came out at 98%.
`COc1cc2c(cc1OC)-c1n[nH]c(Nc3cccc(OCc4ccccc4)c3)c1C2` [Compound 54, (3-Benzyloxy-phenyl)-(6,7-dimethoxy-2,4-dihydro-indeno[1,2-c]pyrazol-3-yl)-amine]: the pIC50 on c-Abl kinase was 6.01. Further, in experiment [1], the inhibition at 10 µM was 76% and the pIC50 was 7.46.
In the same order, the values of `CCOc1cccc(Nc2[nH]nc3c2Cc2cc(OCCCO)c(OC)cc2-3)c1` [Compound 376, 3-[3-(3-Ethoxy-phenylamino)-7-methoxy-2,4-dihydro-indeno[1,2-c]pyrazol-6-yloxy]-propan-1-ol] are 7.22, 100% and 8.04.
`OCC(O)COc1cccc2c1Cc1c-2n[nH]c1Nc1cccc(Br)c1` (centres unmarked) [Compound 468, 3-[3-(3-Bromo-phenylamino)-2,4-dihydro-indeno[1,2-c]pyrazol-5-yloxy]-propane-1,2-diol]: the pIC50 is 6.22 at c-Abl kinase and 7.32 in experiment [1]. Further, the inhibition at 10 µM in experiment [1] is 95.5%.
In the same order, the values of `COc1cc2c(cc1O)Cc1c-2n[nH]c1Nc1cccc(F)c1` [Compound 363, 3-(3-Fluoro-phenylamino)-7-methoxy-2,4-dihydro-indeno[1,2-c]pyrazol-6-ol] are 9.00, 8.26 and 76.5%.
In the same order, the values of `CCOc1cccc(Nc2[nH]nc3c2Cc2cc(OCCCO)c(OCCCO)cc2-3)c1` [Compound 401, 3-[3-(3-Ethoxy-phenylamino)-7-(3-hydroxy-propoxy)-2,4-dihydro-indeno[1,2-c]pyrazol-6-yloxy]-propan-1-ol] are 7.85, 7.66 and 98.5%.
`COC(=O)c1cccc(Nc2[nH]nc3c2Cc2cc(OCCCN4CCOCC4)c(OC)cc2-3)c1` [Compound 133, 3-[7-Methoxy-6-(3-morpholin-4-yl-propoxy)-2,4-dihydro-indeno[1,2-c]pyrazol-3-ylamino]-benzoic acid methyl ester]: the pIC50 on c-Abl kinase was 6.30. In experiment [1], the inhibition at 10 µM was 53% and the pIC50 is 7.42.
In the same order, the values of `CC(O)c1cccc(Nc2[nH]nc3c2Cc2cc(F)ccc2-3)c1` (centres unmarked) [Compound 289, 1-[3-(6-Fluoro-2,4-dihydro-indeno[1,2-c]pyrazol-3-ylamino)-phenyl]-ethanol] are 5.62, 93.5% and 7.73.
Regarding `COc1cc2c(cc1OCCCO)Cc1c-2n[nH]c1NCc1c(Cl)cccc1Cl` [Compound 448, 3-[3-(2,6-Dichloro-benzylamino)-7-methoxy-2,4-dihydro-indeno[1,2-c]pyrazol-6-yloxy]-propan-1-ol], the pIC50 at c-Abl kinase is 8.52; in experiment [1], 8.75. Moreover, the inhibition at 10 µM in experiment [1] was found to be 100%.
Regarding `COc1ccc2c(c1)-c1n[nH]c(Nc3cccc(F)c3)c1C2` [Compound 172, (3-Fluoro-phenyl)-(7-methoxy-2,4-dihydro-indeno[1,2-c]pyrazol-3-yl)-amine], the pIC50 on c-Abl kinase is 7.08; in experiment [1], 7.88. Also, the inhibition at 10 µM in experiment [1] came out at 55%.
`COc1cc2c(cc1Br)Cc1c-2n[nH]c1Nc1cccc(F)c1` [Compound 369, (6-Bromo-7-methoxy-2,4-dihydro-indeno[1,2-c]pyrazol-3-yl)-(3-fluoro-phenyl)-amine]: the pIC50 on c-Abl kinase is 7.33. In experiment [1], the inhibition at 10 µM is 100% and the pIC50 is 7.73.
For `COc1cc2c(cc1OC)C(C)c1c-2n[nH]c1Nc1ccccc1` (centres unmarked) [Compound 247, (6,7-Dimethoxy-4-methyl-2,4-dihydro-indeno[1,2-c]pyrazol-3-yl)-phenyl-amine] the same measures were 7.48, 96% and 7.15.
For `CCCC(=O)OCn1nc(Nc2cccc(F)c2)c2c1-c1cc(OC)c(OC)cc1C2` [Compound 490, Butyric acid 3-(3-fluoro-phenylamino)-6,7-dimethoxy-4H-indeno[1,2-c]pyrazol-1-ylmethyl ester], the values for the pIC50 (on c-Abl kinase; in experiment [1]) were 7.42 and 7.55, respectively. Also, the inhibition at 10 µM in experiment [1] came to 96%.
In the same order, the values of `CN1CCN(c2ccc3c(c2)Cc2c-3n[nH]c2Nc2cccc(Cl)c2)CC1` [Compound 124, (3-Chloro-phenyl)-[6-(4-methyl-piperazin-1-yl)-2,4-dihydro-indeno[1,2-c]pyrazol-3-yl]-amine] are 5.73, 7.79 and 94%.
Turning to `COc1cc2c(cc1OCCCN1CCOCC1)Cc1c-2n[nH]c1Nc1cccc(Cl)c1` [Compound 132, (3-Chloro-phenyl)-[7-methoxy-6-(3-morpholin-4-yl-propoxy)-2,4-dihydro-indeno[1,2-c]pyrazol-3-yl]-amine], at c-Abl kinase, the pIC50 is 6.18. Also, in experiment [1], the inhibition at 10 µM worked out at 79% and the pIC50 was 8.27.
